In patent US20120058499A1, “Bioluminescent Detection of Protease Activity” (priority 2010, published 2012):

Columns and labels:
Assay in all cases: Platform comparison of DUB substrates, signal to background
Type in all cases: biochemical
Conditions in all cases: DUB 10 nM; signal at 30 minutes; Ub-LUC 100 nM, DUB-Glo substrate 20 μM, Ub-AMC/Ub-rho 250 nM
[1] = target: T1, AMSH (Homo sapiens, UniProt O95630)
T1 sequence (O95630 1-424): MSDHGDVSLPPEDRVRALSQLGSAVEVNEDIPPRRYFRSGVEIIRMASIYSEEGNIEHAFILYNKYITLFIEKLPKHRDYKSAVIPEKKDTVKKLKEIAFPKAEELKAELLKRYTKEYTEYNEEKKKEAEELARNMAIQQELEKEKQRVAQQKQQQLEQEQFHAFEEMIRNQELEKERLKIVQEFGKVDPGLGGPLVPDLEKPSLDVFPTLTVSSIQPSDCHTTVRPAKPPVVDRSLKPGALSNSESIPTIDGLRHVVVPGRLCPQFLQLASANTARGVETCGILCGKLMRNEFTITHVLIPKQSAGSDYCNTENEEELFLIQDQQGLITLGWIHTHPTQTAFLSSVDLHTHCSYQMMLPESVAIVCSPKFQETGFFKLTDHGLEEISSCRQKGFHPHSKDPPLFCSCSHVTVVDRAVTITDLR
Description: (§1) For Ub-AMC and Ub-Rhodamine110, all enzymes were diluted into 50 mM Tris, pH 8.0, 5 mM DTT, 0.05% CHAPS to a final concentration of 10 nM. […] Either Ub-AMC or Ub-Rhodamine110 (final reaction concentration equal to 250 nM) were diluted into 50 mM Tris, pH 8.0, 5 mM DTT, 0.05% (w/v) CHAPS. […] For Ub-Rhodamine110, fluorescence was monitored with filters corresponding to excitation at 485 nm and emission at 531 nm.

[2] = target: Ataxin3 (Homo sapiens, UniProt P54252)
Chain of Ataxin3 (P54252 whole entry, species assumed): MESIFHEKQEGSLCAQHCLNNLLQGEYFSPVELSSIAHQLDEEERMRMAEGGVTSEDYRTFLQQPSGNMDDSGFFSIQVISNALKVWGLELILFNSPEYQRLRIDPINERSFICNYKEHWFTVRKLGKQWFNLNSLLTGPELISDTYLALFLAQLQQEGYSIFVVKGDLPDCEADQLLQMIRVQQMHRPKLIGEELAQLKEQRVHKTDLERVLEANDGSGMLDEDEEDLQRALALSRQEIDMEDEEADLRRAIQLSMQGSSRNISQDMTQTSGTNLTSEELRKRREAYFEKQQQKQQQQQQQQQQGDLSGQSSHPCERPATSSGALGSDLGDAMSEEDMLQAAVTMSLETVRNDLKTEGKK
Description: as §1

[3] = target: T2, Ataxin3-like (Homo sapiens, UniProt Q9H3M9)
T2 sequence (Q9H3M9 1-355): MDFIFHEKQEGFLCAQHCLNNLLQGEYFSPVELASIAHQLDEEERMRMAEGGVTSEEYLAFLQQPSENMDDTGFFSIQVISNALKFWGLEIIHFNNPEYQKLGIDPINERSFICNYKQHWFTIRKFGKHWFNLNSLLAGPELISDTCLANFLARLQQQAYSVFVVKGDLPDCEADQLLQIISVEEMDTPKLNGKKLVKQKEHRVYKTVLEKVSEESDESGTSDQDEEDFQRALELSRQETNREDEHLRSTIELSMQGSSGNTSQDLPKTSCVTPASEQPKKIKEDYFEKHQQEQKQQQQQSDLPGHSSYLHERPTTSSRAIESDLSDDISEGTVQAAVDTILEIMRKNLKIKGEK
Description: as §1

[4] = target: JosD1 (Homo sapiens, UniProt Q15040)
Description: as §1

[5] = target: T3, JosD2 (Homo sapiens, UniProt Q8TAC2)
T3 sequence (Q8TAC2 1-188): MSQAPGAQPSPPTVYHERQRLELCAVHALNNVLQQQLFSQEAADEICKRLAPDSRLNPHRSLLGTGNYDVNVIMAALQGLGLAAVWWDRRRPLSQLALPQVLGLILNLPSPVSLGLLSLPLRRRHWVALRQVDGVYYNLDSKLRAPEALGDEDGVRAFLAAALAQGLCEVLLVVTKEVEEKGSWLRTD
Description: as §1

[6] = target: T4, Otub2 (Homo sapiens, UniProt Q96DC9)
T4 sequence (Q96DC9 1-234): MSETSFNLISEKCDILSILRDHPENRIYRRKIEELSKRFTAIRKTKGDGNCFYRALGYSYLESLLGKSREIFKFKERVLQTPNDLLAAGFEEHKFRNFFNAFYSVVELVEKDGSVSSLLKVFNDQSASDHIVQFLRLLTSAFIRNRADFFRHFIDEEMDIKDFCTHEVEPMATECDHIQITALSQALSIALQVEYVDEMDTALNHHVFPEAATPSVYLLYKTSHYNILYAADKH
Description: as §1

[7] = target: T5, UCHL5 (Homo sapiens, UniProt Q9Y5K5)
T5 sequence (Q9Y5K5 1-329): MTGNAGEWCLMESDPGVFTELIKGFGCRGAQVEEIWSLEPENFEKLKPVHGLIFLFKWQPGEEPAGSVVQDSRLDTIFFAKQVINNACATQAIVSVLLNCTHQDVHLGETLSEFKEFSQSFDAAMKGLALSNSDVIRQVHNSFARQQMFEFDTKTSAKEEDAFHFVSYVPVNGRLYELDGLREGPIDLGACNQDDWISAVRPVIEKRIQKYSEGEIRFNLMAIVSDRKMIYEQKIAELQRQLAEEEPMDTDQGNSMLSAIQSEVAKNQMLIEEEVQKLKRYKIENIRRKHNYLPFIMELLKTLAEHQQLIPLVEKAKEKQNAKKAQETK
Description: as §1

[8] = target: USP14 (Homo sapiens, UniProt P54578)
Chain of USP14 (P54578 whole entry, species assumed): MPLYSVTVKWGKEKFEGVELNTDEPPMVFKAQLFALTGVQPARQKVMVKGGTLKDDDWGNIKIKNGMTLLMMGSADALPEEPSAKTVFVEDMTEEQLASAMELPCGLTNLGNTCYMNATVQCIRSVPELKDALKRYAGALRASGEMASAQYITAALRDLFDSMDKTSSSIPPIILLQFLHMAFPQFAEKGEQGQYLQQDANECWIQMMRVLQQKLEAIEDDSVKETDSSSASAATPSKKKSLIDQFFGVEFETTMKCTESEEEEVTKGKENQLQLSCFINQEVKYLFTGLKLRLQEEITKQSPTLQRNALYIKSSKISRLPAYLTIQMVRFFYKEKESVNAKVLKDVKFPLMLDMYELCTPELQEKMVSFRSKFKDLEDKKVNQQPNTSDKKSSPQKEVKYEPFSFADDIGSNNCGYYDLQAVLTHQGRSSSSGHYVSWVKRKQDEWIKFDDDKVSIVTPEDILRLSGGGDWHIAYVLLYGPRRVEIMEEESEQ
Description: as §1

[9] = target: USP20 (Homo sapiens, UniProt Q9Y2K6)
Chain of USP20 (Q9Y2K6 whole entry, species assumed): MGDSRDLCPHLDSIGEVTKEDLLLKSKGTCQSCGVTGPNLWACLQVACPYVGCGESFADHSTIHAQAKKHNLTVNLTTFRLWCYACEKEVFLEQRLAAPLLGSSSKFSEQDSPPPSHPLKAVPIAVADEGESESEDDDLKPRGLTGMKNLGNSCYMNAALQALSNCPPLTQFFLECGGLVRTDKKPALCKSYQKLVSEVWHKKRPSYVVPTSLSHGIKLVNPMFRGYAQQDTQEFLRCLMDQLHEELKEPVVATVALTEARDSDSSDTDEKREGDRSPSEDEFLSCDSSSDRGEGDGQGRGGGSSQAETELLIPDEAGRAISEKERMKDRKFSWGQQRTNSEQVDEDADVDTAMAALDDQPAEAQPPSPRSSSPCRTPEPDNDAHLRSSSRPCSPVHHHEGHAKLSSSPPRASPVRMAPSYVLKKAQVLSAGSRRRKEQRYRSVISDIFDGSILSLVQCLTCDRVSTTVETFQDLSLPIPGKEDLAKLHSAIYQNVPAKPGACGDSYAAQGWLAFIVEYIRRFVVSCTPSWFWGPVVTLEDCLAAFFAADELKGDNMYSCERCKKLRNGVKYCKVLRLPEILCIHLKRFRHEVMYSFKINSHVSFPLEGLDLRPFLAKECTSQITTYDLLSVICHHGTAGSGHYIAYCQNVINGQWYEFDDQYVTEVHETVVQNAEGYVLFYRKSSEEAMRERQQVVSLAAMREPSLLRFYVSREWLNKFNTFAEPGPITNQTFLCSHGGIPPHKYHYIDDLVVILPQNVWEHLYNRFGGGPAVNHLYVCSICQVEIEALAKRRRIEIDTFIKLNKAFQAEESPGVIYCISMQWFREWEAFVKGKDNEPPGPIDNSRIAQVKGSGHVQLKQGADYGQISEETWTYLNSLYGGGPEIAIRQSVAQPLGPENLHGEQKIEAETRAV
Description: as §1

Row | Signal to Background value [1] | Signal to Background value [4] | Signal to Background value [5] | Signal to Background value [6] | Signal to Background value [7] | Signal to Background value [8] | Signal to Background value [9] | Substance | Signal to Background value [2] | Signal to Background value [3]
1 | 1.4 | 1.3 | 2.1 | 1.3 | 1.4 | 1.6 | 2.8 | Z-Arg-Leu-Arg-Gly-Gly (SEQ ID NO: 1)-amino-luciferin [DUB-glo ™] | 1.3 | 1.5
2 | 16 | 74 | 760 | 980 | 1700 | 6.0 | 473 | Ub(1-76)-aminoluciferin [Ub-LUC] | 4.0 | 120
